{
  "source": "paper PMC6877910",
  "about": "“Astrocyte-Targeted Transporter-Utilizing Derivatives of Ferulic Acid Can Have Multifunctional Effects Ameliorating Inflammation and Oxidative Stress in the Brain” (Oxidative Medicine and Cellular Longevity, 2019)",
  "key": {"[1]": {"system": "peroxidase activity of cyclooxygenases (COX)", "assay": "Peroxidase activity of cyclooxygenases in cell lysates (fluorometric kit)", "type": "biochemical", "conditions": "100 μM; 30 min; assay does not differentiate COX from LOX", "method": "A coupled oxidation-reduction fluorometric assay was used to assess the inhibitory effect of compounds (100 μM) together with positive controls on the peroxidase activity of cyclooxygenases (COX) (ab204699 Cyclooxygenase Activity Assay Kit, Abcam, Cambridge, UK). The method has been done and validated according to the manufacturer's protocol. Briefly, studied compounds (100 μM) and the reaction mixture were incubated with the cell lysates at room temperature and the reaction was initiated by adding arachidonic acid/NaOH solution. The fluorescence was read in a kinetic mode after every 15 seconds for 30 minutes by the EnVision plate reader (EnVision, PerkinElmer, Inc., Waltham, MA, USA) at λex 535 nm and λem 587 nm."}, "mTOR": {"system": "mTOR", "assay": "Total amount of mTOR (ELISA) in cells", "type": "cell-based, mouse", "conditions": "48 h", "method": "Enzyme-Linked Immunosorbent Assay (ELISA) kits were used (mTOR SimpleStep ELISA Kit and NFκB p65 Total SimpeStep ELISA Kit, Abcam, Cambridge, UK) to quantify mammalian (or mechanistic) target of rapamycin (mTOR) and transcription factor NF-κB amounts, respectively. […] The control wells were treated with the solvent only (0.5% DMSO). Cells were solubilized using the provided extraction buffer with the kit, incubated on ice for 20 minutes and centrifuged at 18 000 × g for 20 min at 4°C. The supernatants were stored at -80°C till the day of the analysis. Standards and samples were then analyzed following the manufacturer's protocol (ELISA sandwich method) and by reading the absorbance with the EnVision plate reader (EnVision, PerkinElmer, Inc., Waltham, MA, USA) at 450 nm. The results were analyzed as pmol of formed mTOR or NF-κB per mL."}, "purified human BACE1": {"biological_target": "T1, purified human BACE1 (Homo sapiens, UniProt P56817)", "T1 construct": "purchased AnaSpec, Inc., Fremont, CA, USA SensoLyte 520 BACE1 Assay kit (catalogue number not given)", "T1 sequence (P56817 46-501)": "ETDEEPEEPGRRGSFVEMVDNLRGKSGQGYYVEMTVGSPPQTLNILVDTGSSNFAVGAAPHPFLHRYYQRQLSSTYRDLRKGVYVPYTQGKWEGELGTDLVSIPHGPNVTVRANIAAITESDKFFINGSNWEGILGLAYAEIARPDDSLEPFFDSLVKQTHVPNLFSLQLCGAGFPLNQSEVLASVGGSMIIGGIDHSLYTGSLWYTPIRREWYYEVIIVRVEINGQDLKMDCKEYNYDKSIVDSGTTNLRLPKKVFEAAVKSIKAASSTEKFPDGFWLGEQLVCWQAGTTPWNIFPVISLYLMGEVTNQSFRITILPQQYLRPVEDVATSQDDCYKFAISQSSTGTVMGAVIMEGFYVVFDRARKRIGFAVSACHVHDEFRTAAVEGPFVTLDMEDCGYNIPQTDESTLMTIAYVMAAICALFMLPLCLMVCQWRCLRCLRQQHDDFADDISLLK", "assay": "BACE1 FRET inhibition assay (SensoLyte 520)", "type": "biochemical", "conditions": "0.25 μM; 30 min", "description": "A fluorometric assay was used to screen the inhibitory effect of the studied compounds on purified human BACE1 using a fluorescence resonance energy transfer (FRET) peptide technique (SensoLyte© 520 BACE1 Assay kit, AnaSpec, Inc., Fremont, CA, USA) according to the manufacturer's protocol. […] The sequence of the FRET peptide has been derived from the β-secretase cleavage site of β-amyloid precursor protein (APP) with Swedish mutation, which enhances β-secretase to process APP resulting in an early onset of AD. Thus, active β-secretase cleaved FRET substrate into two separate fragments resulting in the release of HiLyte™ Fluor 488 fluorescence that was measured by the EnVision plate reader (EnVision, PerkinElmer, Inc., Waltham, MA, USA) at λex 490 nm and λem 520 nm. […] The results were reported as percentages (%), with control sample representing 100% β-secretase activity."}},
  "data": [
    {"molecule": "O=C(O)Cc1ccccc1Nc1c(Cl)cccc1Cl", "note": "[DCF, diclofenac]", "values": [
      {"measurement": "Inhibition of peroxidase activity of COX enzymes", "setting": "[1]", "value": 18, "unit": "%"}
    ]},
    {"molecule": "NCC1(CC(=O)O)CCCCC1", "note": "[gabapentin]", "values": [
      {"measurement": "Reduction of total amount of mTOR", "setting": "mTOR; 100 μM", "value": "46-49%"}
    ]},
    {"molecule": "CN(C)C(=N)N=C(N)N", "note": "[metformin]", "values": [
      {"measurement": "Reduction of total amount of mTOR", "setting": "mTOR; 100 μM", "value": "did not affect"}
    ]},
    {"molecule": "CO[C@H]1C[C@@H]2CC[C@@H](C)[C@@](O)(O2)C(=O)C(=O)N2CCCC[C@H]2C(=O)O[C@H]([C@H](C)C[C@@H]2CC[C@@H](O)[C@H](OC)C2)CC(=O)[C@H](C)/C=C(\\C)[C@@H](O)[C@@H](OC)C(=O)[C@H](C)C[C@H](C)/C=C/C=C/C=C/1C", "note": "[rapamycin]", "values": [
      {"measurement": "Reduction of total amount of mTOR", "setting": "mTOR; 1 μM", "value": "46-49%"}
    ]},
    {"molecule": "KTEEISEVN-Sta-VAEF-NH2 [reference compound]", "values": [
      {"measurement": "BACE1 inhibition", "setting": "purified human BACE1", "value": "ca. 85%"}
    ]}
  ]
}
